In patent publication US10196391B2 (Hoffmann-La Roche Inc., priority 2014, dated 2019):

Tested on: HBsAg
Assay: HBsAg assay (CLIA) in HepG2.2.15 cells
Format: cell-based, HBV
Conditions: Hepatitis B virus, HepG2.2.15, read-out: IC50 (HBsAg assay)
Experimental: HepG2.2.15 cells (Acs et al. Proc Natl Acad Sci USA, 84, (1987), 4641-4), a constitutively HBV-expressing cell line were cultured in DMEM+Glutamax-I medium (Invitrogen, Carlsbad, Calif., USA), supplemented with 10% fetal bovine serum (Invitrogen) and G418 (Invitrogen) at a final concentration of 200 mg/L and maintained in 5% CO2 at 37° C.
HepG2.2.15 cells were seeded in duplicate into white, 96-well plates at 1.5×10^4 cells/well. The cells were treated with a three-fold serial dilution series of the compounds in DMSO. The final DMSO concentration in all wells was 1% and DMSO was used as no drug control.
The HBsAg chemiluminescence immunoassay (CLIA) kit (Autobio Diagnostics Co., Zhengzhou, China, Catalog number: CL0310-2) was used to measure the levels of secreted HBV antigens semi-quantitatively. For the detection 50 μL/well culture supernatant was used and HBsAg was quantified using HBsAg chemiluminescence immunoassay (CLIA) kit (Autobio Diagnostics Co., Zhengzhou, China, Catalog number: CL0310-2), 50 μL of the supernatant was transferred to the CLIA assay plate and 50 μL of enzyme conjugate reagent was added into each well. The plates were sealed and gently agitated for 1 hour at room temperature. The supernatant-enzyme-mixture was discarded and wells were washed 6 times with 300 μL of PBS. The residual liquid was removed by plating the CLIA plate […] on absorbent tissue paper. 25 μL of substrates A and B were added to each well. Luminance was measured using a luminometer (Mithras LB 940 Multimode Microplate Reader) after 10 minutes incubation. Dose-response curves were generated and the IC50 value was extrapolated by using the E-WorkBook Suite (ID Business Solutions Ltd., Guildford, UK). The IC50 was defined as the compound concentration (or conditioned media log dilution) at which HBsAg secretion was reduced by 50% compared to the no drug control.
The compounds according to formula I were tested for their capacity to inhibit HBsAg as described herein.

First: COc1ncc(Cl)c(N2CCc3nc(-c4ccccn4)ncc3C2)n1 [Example 69, 6-(5-chloro-2-methoxy-pyrimidin-4-yl)-2-(2-pyridyl)-7,8-dihydro-5H-pyrido[4,3-d]pyrimidine]
Second: COc1ccnc(N2CCc3nc(-c4ccccn4)ncc3C2)c1F [Example 70, 6-(3-fluoro-4-methoxy-2-pyridyl)-2-(2-pyridyl)-7,8-dihydro-5H-pyrido[4,3-d]pyrimidine]
The IC50 of the first is 1.6-fold lower: 999 nM for the first, 1550 nM for the second. The first is the more potent here.

Going from `COc1cc(N2CCc3nc(-c4ccccn4)ncc3C2)ncc1F` [Example 71, 6-(5-fluoro-4-methoxy-2-pyridyl)-2-(2-pyridyl)-7,8-dihydro-5H-pyrido[4,3-d]pyrimidine] to `COc1cc(N2CCc3nc(-c4ccccn4)ncc3C2)ccc1F` [Example 90, 6-(4-fluoro-3-methoxy-phenyl)-2-(2-pyridyl)-7,8-dihydro-5H-pyrido[4,3-d]pyrimidine], the IC50 rises from 330 nM to 933 nM (2.8-fold). The first is the more potent here.

Going from `COc1nc(N2CCc3nc(-c4ncccn4)ncc3C2)ccc1F` [Example 72, 6-(5-fluoro-6-methoxy-2-pyridyl)-2-pyrimidin-2-yl-7,8-dihydro-5H-pyrido[4,3-d]pyrimidine] to `COc1cc(F)nc(N2CCc3nc(-c4ncccn4)ncc3C2)c1` [Example 99, 6-(6-fluoro-4-methoxy-2-pyridyl)-2-pyrimidin-2-yl-7,8-dihydro-5H-pyrido[4,3-d]pyrimidine], the IC50 falls from 1430 nM to 100 nM (14-fold). The second is the more potent here.

Compared with `COc1cc(OC)cc(N2CCc3nc(-c4ncccn4)ncc3C2)c1` [Example 73, 6-(3,5-dimethoxyphenyl)-2-pyrimidin-2-yl-7,8-dihydro-5H-pyrido[4,3-d]pyrimidine], `COc1cc(Cl)cc(N2CCc3nc(-c4ncccn4)ncc3C2)c1` [Example 98, 6-(3-chloro-5-methoxy-phenyl)-2-pyrimidin-2-yl-7,8-dihydro-5H-pyrido[4,3-d]pyrimidine] is 7.3-fold lower in IC50: 1960 nM for the first, 268 nM for the second.

`COc1ccc2ccc(N3CCc4nc(-c5ncccn5)ncc4C3)cc2n1` [Example 75, 6-(2-methoxy-7-quinolyl)-2-pyrimidin-2-yl-7,8-dihydro-5H-pyrido[4,3-d]pyrimidine] and `COc1cc(C#N)cc(N2CCc3nc(-c4ncccn4)ncc3C2)c1` [Example 76, 3-methoxy-5-(2-pyrimidin-2-yl-7,8-dihydro-5H-pyrido[4,3-d]pyrimidin-6-yl)benzonitrile] are within 1.5-fold of each other in IC50: 2020 nM for the first, 1510 nM for the second.

Going from `COc1cc(N2CCc3nc(-c4ncccn4)ncc3C2)cc(F)c1C#N` [Example 77, 2-fluoro-6-methoxy-4-(2-pyrimidin-2-yl-7,8-dihydro-5H-pyrido[4,3-d]pyrimidin-6-yl)benzonitrile] to `COc1cc(N2CCc3nc(-c4ncccn4)ncc3C2)cc(F)c1Cl` [Example 78, 6-(4-chloro-3-fluoro-5-methoxy-phenyl)-2-pyrimidin-2-yl-7,8-dihydro-5H-pyrido[4,3-d]pyrimidine], the IC50 rises from 265 nM to 19000 nM (72-fold). The first is the more potent here.

Compared with `COc1cc(N2CCc3nc(-c4ncccn4)ncc3C2)cc(Cl)c1F` [Example 79, 6-(3-chloro-4-fluoro-5-methoxy-phenyl)-2-pyrimidin-2-yl-7,8-dihydro-5H-pyrido[4,3-d]pyrimidine], `Fc1cc(N2CCc3nc(-c4ncccn4)ncc3C2)cc(F)n1` [Example 109, 6-(2,6-difluoro-4-pyridyl)-2-pyrimidin-2-yl-7,8-dihydro-5H-pyrido[4,3-d]pyrimidine] is 14-fold higher in IC50: 288 nM for the first, 4090 nM for the second. The first is the more potent here.

Compared with `COc1nc(-c2ccccn2)nc2c1CN(c1ccc(S(C)(=O)=O)cc1)CC2` [Example 81], `CCOc1nc(-c2ccccn2)nc2c1CN(c1ccc(S(C)(=O)=O)cc1)CC2` [Example 82] is 3.4-fold lower in IC50: 11300 nM for the first, 3350 nM for the second.

Compared with `CS(=O)(=O)c1ccc(N2CCc3nc(-c4ccccn4)nc(OCc4ccccc4)c3C2)cc1` [Example 83], `Cc1nc(-c2ccccn2)nc2c1CN(c1ccc(S(C)(=O)=O)cc1)CC2` [Example 87] is 1.9-fold lower in IC50: 20000 nM for the first, 10300 nM for the second. The second is the more potent here.

First: C/C=C/c1nc(-c2ccccn2)nc2c1CN(c1ccc(S(C)(=O)=O)cc1)CC2 [Example 84]
Second: CCc1nc(-c2ccccn2)nc2c1CN(c1ccc(S(C)(=O)=O)cc1)CC2 [Example 86]
The IC50 of the first is 2.6-fold lower: 8560 nM for the first, 22100 nM for the second. The first is the more potent here.

First: CCCc1nc(-c2ccccn2)nc2c1CN(c1ccc(S(C)(=O)=O)cc1)CC2 [Example 85]
Second: CNc1nc(-c2ccccn2)nc2c1CN(c1ccc(S(C)(=O)=O)cc1)CC2 [Example 88]
The IC50 of the first is 3.2-fold lower: 8290 nM for the first, 26400 nM for the second. The first is the more potent here.

First: CS(=O)(=O)c1ccc(N2CCc3nc(-c4ccccn4)ccc3C2)cc1 [Example 89, 6-(4-methylsulfonylphenyl)-2-(2-pyridyl)-7,8-dihydro-5H-1,6-naphthyridine]
Second: COc1cccc(N2CCc3nc(-c4ccccn4)ncc3C2)c1 [Example 92, 6-(3-methoxyphenyl)-2-(2-pyridyl)-7,8-dihydro-5H-pyrido[4,3-d]pyrimidine]
The IC50 of the first is 2.3-fold higher: 6720 nM for the first, 2890 nM for the second. The second is the more potent here.

Going from `COc1cc(F)cc(N2CCc3nc(-c4ccccn4)ncc3C2)c1` [Example 91, 6-(3-fluoro-5-methoxy-phenyl)-2-(2-pyridyl)-7,8-dihydro-5H-pyrido[4,3-d]pyrimidine] to `OCCOc1cc(N2CCc3nc(-c4ccccn4)ncc3C2)cc(F)c1F` [Example 94, 2-[2,3-difluoro-5-[2-(2-pyridyl)-7,8-dihydro-5H-pyrido[4,3-d]pyrimidin-6-yl]phenoxy]ethanol], the IC50 rises from 198 nM to 660 nM (3.3-fold).

Going from `OCCCOc1cc(N2CCc3nc(-c4ccccn4)ncc3C2)cc(F)c1F` [Example 93, 3-[2,3-difluoro-5-[2-(2-pyridyl)-7,8-dihydro-5H-pyrido[4,3-d]pyrimidin-6-yl]phenoxy]propan-1-ol] to `COc1cc(N2CCc3cc(-c4ccccn4)ncc3C2)cc(F)c1F` [Example 96, 2-(3,4-difluoro-5-methoxy-phenyl)-6-(2-pyridyl)-3,4-dihydro-1H-2,7-naphthyridine], the IC50 falls from 314 nM to 162 nM (1.9-fold).

First: COc1cc(N2CCc3cc(-c4ncccn4)ncc3C2)cc(F)c1F [Example 95, 2-(3,4-difluoro-5-methoxy-phenyl)-6-pyrimidin-2-yl-3,4-dihydro-1H-2,7-naphthyridine]
Second: COc1cc(N2CCc3nc(-c4ncccn4)ccc3C2)cc(F)c1F [Example 97, 6-(3,4-difluoro-5-methoxy-phenyl)-2-pyrimidin-2-yl-7,8-dihydro-5H-1,6-naphthyridine]
The IC50 of the first is 270-fold lower: 61 nM for the first, 16400 nM for the second. The first is the more potent here.

Going from `COc1cc(N2CCc3nc(-c4ncccn4)ncc3C2)cc(C(F)(F)F)c1` [Example 100, 6-[3-methoxy-5-(trifluoromethyl)phenyl]-2-pyrimidin-2-yl-7,8-dihydro-5H-pyrido[4,3-d]pyrimidine] to `COC(=O)c1cc(F)cc(N2CCc3nc(-c4ncccn4)ncc3C2)c1` [Example 102, methyl 3-fluoro-5-(2-pyrimidin-2-yl-7,8-dihydro-5H-pyrido[4,3-d]pyrimidin-6-yl)benzoate], the IC50 rises from 278 nM to 11900 nM (43-fold). The first is the more potent here.

Going from `N#Cc1cc(F)cc(N2CCc3nc(-c4ncccn4)ncc3C2)c1` [Example 101, 3-fluoro-5-(2-pyrimidin-2-yl-7,8-dihydro-5H-pyrido[4,3-d]pyrimidin-6-yl)benzonitrile] to `NC(=O)c1cc(F)cc(N2CCc3nc(-c4ncccn4)ncc3C2)c1` [Example 105, 3-fluoro-5-(2-pyrimidin-2-yl-7,8-dihydro-5H-pyrido[4,3-d]pyrimidin-6-yl)benzamide], the IC50 rises from 674 nM to 18100 nM (27-fold). The first is the more potent here.

First: CNC(=O)c1cc(F)cc(N2CCc3nc(-c4ncccn4)ncc3C2)c1 [Example 103, 3-fluoro-N-methyl-5-(2-pyrimidin-2-yl-7,8-dihydro-5H-pyrido[4,3-d]pyrimidin-6-yl)benzamide]
Second: COCCCNC(=O)c1cc(F)cc(N2CCc3nc(-c4ncccn4)ncc3C2)c1 [Example 106, 3-fluoro-N-(3-methoxypropyl)-5-(2-pyrimidin-2-yl-7,8-dihydro-5H-pyrido[4,3-d]pyrimidin-6-yl)benzamide]
The IC50 of the first is 2.1-fold higher: 2770 nM for the first, 1340 nM for the second.

First: O=C(NCC(F)(F)F)c1cc(F)cc(N2CCc3nc(-c4ncccn4)ncc3C2)c1 [Example 104, 3-fluoro-5-(2-pyrimidin-2-yl-7,8-dihydro-5H-pyrido[4,3-d]pyrimidin-6-yl)-N-(2,2,2-trifluoroethyl)benzamide]
Second: O=C(NCCCCCO)c1cc(F)cc(N2CCc3nc(-c4ncccn4)ncc3C2)c1 [Example 107, 3-fluoro-N-(5-hydroxypentyl)-5-(2-pyrimidin-2-yl-7,8-dihydro-5H-pyrido[4,3-d]pyrimidin-6-yl)benzamide]
The IC50 of the first is 5.7-fold lower: 1240 nM for the first, 7120 nM for the second. The first is the more potent here.

Compared with `COc1cc(Cl)nc(N2CCc3nc(-c4ncccn4)ncc3C2)c1` [Example 108, 6-(6-chloro-4-methoxy-2-pyridyl)-2-pyrimidin-2-yl-7,8-dihydro-5H-pyrido[4,3-d]pyrimidine], `Fc1cc(F)nc(N2CCc3nc(-c4ncccn4)ncc3C2)c1` [Example 110, 6-(4,6-difluoro-2-pyridyl)-2-pyrimidin-2-yl-7,8-dihydro-5H-pyrido[4,3-d]pyrimidine] is 5.5-fold higher in IC50: 263 nM for the first, 1440 nM for the second.
